In patent publication US10111880B2, “Compounds for the treatment of diabetes and disease complications arising from same” (BEN-GURION UNIVERSITY OF THE NEGEV RESEARCH AND DEVELOPMENT …, priority 2013, dated 2018):
Entries after “also recorded” stand apart in the source; their conditions may differ.

How the values were obtained:
[1] = system: STZ-induced diabetic Wistar rats; test: Blood glucose in STZ-induced diabetic rats treated with AGS-500; type: in vivo, rat
Procedure: The effect of compounds of the present invention on diabetes per se, and disease complications arising as a result of diabetes was evaluated. Streptozotocin treatment of mice and rats are known in vivo diabetes models. Intraperitoneal injections of reduced STZ concentrations (35 mg/kg) was evaluated in mice and rats, in order to determine whether in a model causing only partial damage to pancreatic islet β-cells, whether the compounds of this invention would be helpful. Eight-week-old Wistar female rats received two doses of STZ administered intraperitoneally (60 or 35 mg/kg in 0.1M Citrate buffer; at 5-day intervals), which induced diabetes in all animal, since not all rats that received a single injection of STZ became diabetic in this model. These animals were then treated every 3 days with a subcutaneous injection of compound AGS-500 (6 mg/kg) for from 2-5 weeks to generate a Type I Diabetes phenotype. Blood glucose levels were monitored every 3 days in the rats. Ten weeks after the beginning of this study, each mice group was divided into 2 sub-groups, one of each also received insulin (4 U\Kg) every 2 days, except for the non-diabetic sub-groups. Acetic acid (1%) served as the vehicle control. Diabetes was diagnosed when non-fasting blood glucose levels were above 200 mg/dl. Extension of these studies included treatment of rats divided into 4 groups, as follows: 3 groups received 2 injections of STZ (35 mg/kg) at day 0′ and day 15′, serving as the diabetic group, while the non-diabetic group received 2 injections of Citrate buffer in accordance with the stated schedule. One diabetic group was administered AGS-500 intraperitoneally (6 mg/kg) every 12 hours (12 h) starting at day 4′, the second diabetic group received DMSO every 12 h starting at day 4′, and a third diabetic group was not injected with either AGS-500 or DMSO.

[2] = system: STZ-induced diabetic ICR mice; test: Blood glucose in STZ-induced diabetic ICR mice, long-term AGS treatment (5 months) with or without insulin; type: in vivo, mouse; parameters: Blood Glucose At 101 day / Blood Glucose At 111 day: unit: mg/dL; conditions: for % reduction in blood glucose level / Blood glucose level Average: after 12 hours fast, day 142; for Blood glucose level Average: in mg/dL (unit assumed)
Procedure: [0182]7 week-old female ICR mice were intra-peritoneally injected with STZ (40 mg\Kg) for 5 consecutive days. Non-diabetic mice received citrate buffer (pH 4.3, cold), which served as the vehicle controls for this study. AGS-500 (6 mg\Kg) was then administered subcutaneously every 2 days, for 5 months, on the first day after STZ administration. A further control group, where DMSO was administered in accordance with this regimen, was included. Mice were divided into the following 6 groups (10 mice per group except STZ only-5 mice): • STZ only • STZ+DMSO • Citrate+DMSO 1% every day • STZ+AGS-499 (6 mg/kg) injected every day S.C • STZ+AGS-500 (6 mg/kg) injected every day S.C • STZ+AGS-500 (6 mg/kg) injected every other day S.C Mice were weighed and blood glucose levels were measured using a free style glucometer. Food consumption was also measured 24 hours prior to STZ injection. The concentration of STZ to be injected was calculated. STZ at 40 mg/kg was injected ip for 5 consecutive days. AGS treatment was administered one day following the last STZ injection. The establishment of diabetes was validated by the assessment of blood glucose levels performed every 3 days (at the beginning) and once a week after 59 days from the initiation of the experiment. Blood glucose levels over 200 mg/dl (measured 3 consecutive times) indicated a diabetic state. At 80 days from the initiation of the experiments each group was divided to 2 subgroups which received either insulin (4 units/kg) or acetic acid (0.015%) both in HEPES buffer (pH 7.45) injected every 48 hours. Mice were sacrificed after 5 months from the initiation of the experiments. Blood glucose levels were monitored every 3 days. Ten weeks after the beginning of this study, each group was divided into 2 sub-groups, one of each also received insulin (4 U\Kg) every 2 days, except for the non-diabetic sub-groups. Acetic acid (1%) served as the vehicle control.

[3] = system: STZ-induced diabetic ICR mice; test: Glucose Tolerance Test (GTT) in STZ diabetic mice after 2 and 5 months; type: in vivo, mouse; conditions: for Improvement (fold): GTT after 2 months; for Fold of Improvement: GTT after 5 months; for Time needed for the Pancreas to cope glucose load after 5 months / Time needed for the Pancreas to cope with glucose load after 2 months: GTT
Procedure: Glucose Tolerance Test: Animals were fasted for 12 hr with free access to water. Blood-glucose levels after fast were measured and then the animals received an i.p. injection of glucose (1.5 g/kg). Blood samples were taken at several intervals (for the duration of 2 hr), when glucose levels above 200 mg/dl at 2 hr confirmed a diagnosis of diabetes.
[…] Mice were subjected to 12 hours fast (with water) weighed, blood glucose level was measured and Glucose at 1.5 gr/kg in no more than 100 μl was injected IP. Blood glucose levels were measured at 10, 20, 30, 60, 90 and 120 min after glucose injection. glucose tolerance test.

[4] = system: insulin expressing beta islets; test: Immunofluorescence of pancreatic slices with anti-insulin antibody, insulin expressing beta islets in mice; type: in vivo, mouse
Procedure: The light grey (originally red) stains insulin producing cells, and the darker grey (originally blue) is for DAPI staining. Density of insulin staining per area was measured using “Image J” software (D-E). The results are mean±S.E.; n=4. ***p<0.005. Magnification: ×10.

[5] = system: pancreatic β-cells; test: Insulin immuno-histochemical and immuno-fluorescence staining of pancreas, β-cell mass in STZ-injected rats; type: in vivo, rat; conditions: FIG. 5A, 5B, 5D
Procedure: Rats were treated as described in Example 1, pancreata were removed fixed in 4% formalin, and embedded in paraffin for immuno-histochemical and immuno-fluorescence staining using a specific anti-insulin antibody and serial histopathologic sections were prepared. […] Brown staining in FIG. 5A indicates insulin staining positivity by immunohistochemistry, and red staining (FIGS. 5B and 5C) indicates insulin staining positivity by immunofluorescence, blue cellular staining was effected with Dapi). The Cell density and density of insulin staining per area was measured using “Image J” software (FIGS. 5D and 5E). The results are presented as mean±S.E.; n=4. ***p<0.005.

[6] = STZ rats, AGS-500 6 mg/kg s.c. every 3 days

## CC(c1cc(Br)c(O)c(Br)c1)(c1cc(Br)c(O)c(Br)c1)c1cc(Br)c(O)c(Br)c1 [AGS-500, 1,1,1-tris (4-hydroxy-3,5-dibromo-phenyl)-ethane]
[1]; [6]
  Blood glucose levels: 275 ± 18 mg/dL
  effect on the rat hyperglycemic state: no effect
[1]; rats, STZ 35 mg/kg day 0 and 15, AGS-500 6 mg/kg i.p. every 12 h from day 4, FIG. 1A
  blood glucose levels of non-fasting animals: No reduction
[1]; rats, STZ 35 mg/kg day 0 and 15, AGS-500 6 mg/kg i.p. every 12 h from day 4, FIG. 1B
  fasting glucose levels (following 12 h fast): significant reduction of blood glucose levels to normal; also recorded: Reduction in Blood Glucose Level
[2]; AGS 500 every 48 hrs, without insulin
  blood glucose levels with time: best effect in reducing blood glucose levels with time
[2]; FIG. 2F
  circulating glucose levels, AGS-500 alone versus combined AGS-500 and insulin: greatest therapeutic effect
[2]; 6 mg/kg s.c. daily
  % reduction in blood glucose level: 20%
  Blood glucose level Average: 317.4
[2]; 6 mg/kg s.c. every 48 hrs
  % reduction in blood glucose level: 32%
  Blood glucose level Average: 270
[2]; no insulin, daily
  % reduction In blood Glucose 101 day: 15%
  Blood Glucose At 101 day: 600
  Blood Glucose At 111 day: 450
  reduction In blood Glucose 111 day: 25%
[2]; no insulin, every 48 hrs
  % reduction In blood Glucose 101 day: 43%
  Blood Glucose At 101 day: 400
  Blood Glucose At 111 day: 390
  reduction In blood Glucose 111 day: 35%
[2]; with insulin (4 units/kg every 48 hours), AGS daily
  Blood Glucose At 101 day: 460
[2]; with insulin, AGS daily
  % reduction In blood Glucose 101 day: 34%
  Blood Glucose At 111 day: 400
  reduction In blood Glucose 111 day: 34%
[2]; with insulin, AGS every 48 hrs
  % reduction In blood Glucose 101 day: 32%
  Blood Glucose At 101 day: 480
  Blood Glucose At 111 day: 400
  reduction In blood Glucose 111 day: 34%
[3]; daily
  Improvement (fold): 1.5 fold
  Fold of Improvement: 3 fold
  Time needed for the Pancreas to cope glucose load after 5 months: 30 min
  Time needed for the Pancreas to cope with glucose load after 2 months: 60 min
[3]; every 48 hrs
  Improvement (fold): 3 fold
  Fold of Improvement: normal
  Time needed for the Pancreas to cope glucose load after 5 months: 20 min
  Time needed for the Pancreas to cope with glucose load after 2 months: 30 min
[3]; treatment every 48 hours, FIG. 4
  GTT test performed after 5 months: significant improvement in the GTT test
[4]; immunofluorescence, FIG. 5C
  β-cell Mass in STZ-injected mice: preserved β-cell Mass
[4]; no insulin, daily
  No of insulin expressing beta islets/mouse: 5.6
  increase in Insulin expressing Beta islets: 215%
[4]; no insulin, every 48 hrs
  No of insulin expressing beta islets/mouse: 5
  increase in Insulin expressing Beta islets: 192%
[4]; with insulin, AGS daily
  No of insulin expressing beta islets/mouse: 2.5
[4]; with insulin, AGS every 48 hrs
  No of insulin expressing beta islets/mouse: 3
  increase in Insulin expressing Beta islets: 115%
[5]
  β-cell mass in the pancreas of STZ-injected rats: significantly larger β-cell mass; also recorded: preserved β-cell Mass
